# Test results from paper PMC2390898 (Antiviral Research, 2006).
# Read-outs that look alike come from different tables or passages of the source.
# How the values were obtained:
# [1] = tested on: LANA; assay type: cell-based, Kaposi's sarcoma-associated herpesvirus (KSHV)
# [2] = tested on: BCBL-1 cells; conditions: for relative percentage of fluorescence intensity (cell viability): 1 h
# [3] = tested on: RTA; assay type: cell-based, Kaposi's sarcoma-associated herpesvirus (KSHV)
# [4] = tested on: RTA; assay type: cell-based, Kaposi's sarcoma-associated herpesvirus (KSHV); remark: listed apart in the source
# [5] = tested on: RTA; assay type: cell-based, Kaposi's sarcoma-associated herpesvirus (KSHV); remark: listed apart in the source
# [6] = tested on: RTA; assay type: cell-based, Kaposi's sarcoma-associated herpesvirus (KSHV); remark: listed apart in the source
# [7] = tested on: LP1/luciferase RNA; assay: Cell-free reporter assay with LP1/luciferase RNA; assay type: biochemical, Kaposi's sarcoma-associated herpesvirus (KSHV); conditions: data not shown
# [8] = tested on: ORF50 leader sequence (RP1 P-PMO target region)-luciferase RNA; assay type: biochemical, Kaposi's sarcoma-associated herpesvirus (KSHV)
# [9] = tested on: BCBL-1 cells; assay: PMO/P-PMO uptake and persistence in BCBL-1 cells; assay type: cell-based
# [10] = tested on: KSHV; assay type: cell-based, Kaposi's sarcoma-associated herpesvirus (KSHV)
compound,measurement,setting,value
CC(=O)N1C[C@@H](COP(=O)(N(C)C)N2C[C@@H](COP(=O)(N(C)C)N3C[C@@H](COP(=O)(N(C)C)N4C[C@@H](COP(=O)(N(C)C)N5C[C@@H](COP(=O)(N(C)C)N6C[C@@H](COP(=O)(N(C)C)N7C[C@@H](COP(=O)(N(C)C)N8C[C@@H](COP(=O)(N(C)C)N9C[C@@H](COP(=O)(N(C)C)N%10C[C@@H](COP(=O)(N(C)C)N%11C[C@@H](COP(=O)(N(C)C)N%12C[C@@H](COP(=O)(N(C)C)N%13C[C@@H](COP(=O)(N(C)C)N%14C[C@@H](COP(=O)(N(C)C)N%15C[C@@H](COP(=O)(N(C)C)N%16C[C@@H](COP(=O)(N(C)C)N%17C[C@@H](COP(=O)(N(C)C)N%18C[C@@H](COP(=O)(N(C)C)N%19C[C@@H](COP(=O)(N(C)C)N%20C[C@@H](COP(=O)(N(C)C)N%21CCN(C(=O)CCCN%22C(=O)CC(SC[C@H](NC(=O)[C@H](CCCNC(=N)N)NC(=O)[C@H](CCCNC(=N)N)NC(=O)[C@H](CCCNC(=N)N)NC(=O)[C@H](CCCNC(=N)N)NC(=O)[C@H](Cc%23ccccc%23)NC(=O)[C@H](Cc%23ccccc%23)NC(=O)[C@H](CCCNC(=N)N)NC(=O)[C@H](CCCNC(=N)N)NC(=O)[C@H](CCCNC(=N)N)NC(=O)[C@H](CCCNC(=N)N)NC(=O)[C@@H](N)CCCNC(=N)N)C(N)=O)C%22=O)CC%21)O[C@@H](n%21cnc%22c(=O)[nH]c(N)nc%22%21)C%20)O[C@@H](n%20cnc%21c(N)ncnc%21%20)C%19)O[C@@H](n%19cc(C)c(=O)[nH]c%19=O)C%18)O[C@@H](n%18cnc%19c(N)ncnc%19%18)C%17)O[C@@H](n%17cc(C)c(=O)[nH]c%17=O)C%16)O[C@@H](n%16cnc%17c(N)ncnc%17%16)C%15)O[C@@H](n%15ccc(N)nc%15=O)C%14)O[C@@H](n%14cnc%15c(N)ncnc%15%14)C%13)O[C@@H](n%13ccc(N)nc%13=O)C%12)O[C@@H](n%12cnc%13c(N)ncnc%13%12)C%11)O[C@@H](n%11cnc%12c(N)ncnc%12%11)C%10)O[C@@H](n%10ccc(N)nc%10=O)C9)O[C@@H](n9cnc%10c(N)ncnc%109)C8)O[C@@H](n8ccc(N)nc8=O)C7)O[C@@H](n7ccc(N)nc7=O)C6)O[C@@H](n6ccc(N)nc6=O)C5)O[C@@H](n5cnc6c(N)ncnc65)C4)O[C@@H](n4cnc5c(N)ncnc54)C3)O[C@@H](n3cc(C)c(=O)[nH]c3=O)C2)O[C@@H](n2cc(C)c(=O)[nH]c2=O)C1 (stereo partly drawn) [CP1],LANA staining by IFA after three treatments,[1],no detectable effect
same,cytotoxicity,[2],no detectable cytotoxicity
same,relative percentage of fluorescence intensity (cell viability),[2]; 8 μM,106%
same,relative percentage of fluorescence intensity (cell viability),[2]; 16 μM,107%
same,change in RTA expression by Western blot,[3],no detectable change
same,RTA-positive cells by IFA,[4],approximately 20%
same,number of RTA-positive cells by IFA in BC-1 cells,[5],no effect
same,RTA flow cytometry profile,[6],same profile as the mock treatment control
H-RRRRRFFRRRRC-NH2 [LP1],"change in LANA level, recurrent application",[1],no change
same,"effect on LANA expression, single application (IFA and Western blot)",[1],no effect
same,inhibition of translation in LP1/luciferase reporter system,[7],effective at inhibiting translation
same,effect on luciferase translation (negative control P-PMO),[8],did not have any effect
H-RRRRRFFRRRRC-NH2 [LP2],LANA protein level (IFA and Western blot),[1],caused reduction
same,LANA staining by IFA after three treatments,[1],much weaker
same,reduction in LANA protein level after the second application,[1],over 60%
H-RRRRRFFRRRRC-NH2 [P-PMO-F1],"cells with green fluorescence at 24, 48 and 72 h (fluorescence microscopy)","[9]; BCBL-1 cells treated 4 h with 8 μM, rinsed, harvested 24, 48 and 72 h later",almost all cells
same,"cells with green fluorescence at 24, 48 and 72 h (flow cytometry)","[9]; BCBL-1 cells treated 4 h with 8 μM, rinsed, harvested 24, 48 and 72 h later, all three time points",over 95%
same,fluorescence of cells by flow cytometry,"[9]; BCBL-1 cells, 8 μM, treated for 4 h, flow cytometry, 525 nm band pass filter",high percentage
same,green fluorescence in treated cells at day 7,"[9]; BCBL-1 cells, day 7 after treatment, reduced intensity, data not shown",still observed
H-RRRRRFFRRRRC-NH2 [mRP1],change in RTA expression by Western blot,[3],no effect
"tetradecanoyl phorbol acetate [TPA, reference compound]","increase of KSHV viral DNA level by TPA induction, in cells",[10],1.84 fold
same,"increase of KSHV viral DNA level by TPA induction, in culture supernatant",[10],2.75 fold
same,"RTA-positive cells by IFA after TPA induction, no P-PMO",[4],approximately 20%
same,"RTA-positive cells by flow cytometry after TPA induction, no P-PMO",[6],approximately 25%
